Series [1] addresses T1, BCRP (Homo sapiens, UniProt Q9UNQ0).
T1 construct: endogenous in cells; host or cells: HT29 parental and HT29 SN38-resistant colorectal cancer cells
T1 sequence (Q9UNQ0 1-655): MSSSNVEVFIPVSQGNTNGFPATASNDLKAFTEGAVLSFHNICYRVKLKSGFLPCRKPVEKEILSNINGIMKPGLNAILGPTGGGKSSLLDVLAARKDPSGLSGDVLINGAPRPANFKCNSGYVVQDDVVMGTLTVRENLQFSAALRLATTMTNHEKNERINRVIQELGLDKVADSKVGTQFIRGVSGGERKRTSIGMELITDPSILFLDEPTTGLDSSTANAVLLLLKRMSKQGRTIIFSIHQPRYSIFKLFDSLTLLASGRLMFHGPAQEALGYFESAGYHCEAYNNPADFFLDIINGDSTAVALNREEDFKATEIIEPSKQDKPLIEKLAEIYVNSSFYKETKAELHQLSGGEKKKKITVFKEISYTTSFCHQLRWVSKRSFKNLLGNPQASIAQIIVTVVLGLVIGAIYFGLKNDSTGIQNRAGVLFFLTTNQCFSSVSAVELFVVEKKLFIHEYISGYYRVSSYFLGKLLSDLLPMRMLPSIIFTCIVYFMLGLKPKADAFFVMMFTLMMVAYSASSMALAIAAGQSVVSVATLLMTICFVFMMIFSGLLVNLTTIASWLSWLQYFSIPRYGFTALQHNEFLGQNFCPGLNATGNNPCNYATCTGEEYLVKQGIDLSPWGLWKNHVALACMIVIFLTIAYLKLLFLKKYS
Kind of series: 3H-SN-38 uptake in HT29 SN-38 resistant cell monolayers (Example 6). It is filed as cell-based. The protocol:
All treatments were investigated in three technical replicates (N=3). On the day of experimentation, the culture media was exchanged with 100 μL transport buffer (HBSS, 0.05% BSA, 10 mM HEPES, pH 7.4) and cells were incubated for 15 minutes at 37° C.
Subsequently, the blank transport buffer was exchanged with 50 μL transport buffer containing the different compounds (in 2x of the final concentration) to be tested and incubated for 15 minutes at 37° C. The uptake experiment was started by adding 50 μL of ^3H-SN38 at a concentration of 2 μCi/mL to all wells (the resulting concentration of ^3H-SN38 during the experiment was 1 μCi/mL). The uptake experiment was stopped after 15 minutes of incubation at 37° C. by removing the transport buffer from all wells.
The cell monolayers were subsequently washed twice by adding/removing ice-cold transport buffer twice and finally the cell monolayers were lysed by incubation in 100 μl of 0.1% TritonX-100 for 15 minutes at ambient temperature. Cell lysates were transferred to scintillation vials containing 2 mL of scintillation fluid (Ultima Gold, PerkinElmer). Each well was washed with 2×100 μL purified water (milliQ), which was also transferred to respective scintillation vials.

Series [2] can be described thus: Plasma concentrations of SCO-101 and SN-38 in patients upon repeated administration of SCO-101 (Example 1). The series is classed as in vivo, human. Particulars: 150 mg SCO-101 repeated every 24 hours, FIG. 1D. The protocol:
On days 1, 2, 3, 4, 5 and 6 in each treatment cycle, patients received one fixed daily dose of 150 mg SCO-101 taken in the morning at least 30 minutes before ingestion of food. On day 5 to 7, patients received FOLFIRI as specified for Colorectal cancer combination regimen 2. Blood samples were taken from patients at predefined timepoints according to the study protocol. During the first cycle of treatment, blood samples for pharmacokinetic analysis of SCO-101, irinotecan, and SN-38 were taken as follows: • Day 1; (pre-SCO-101 administration, 1; 4; 5; 6; 8); only for PK analysis of SCO-101 • Day 2; […] (pre-SCO-101 administration, 1; 4; 5; 6; 8) • Day 6; […] (48 hours), • Day 9; (96 hours). Blood samples were collected in 4 mL blood-collection tubes using lithium heparin as the anti-coagulant. Blood samples were centrifuged, and the resulting plasma is withdrawn and stored at −70° C. until analysis. […] The method and system, including validation were according to industry standard. Data were analysed using commercially available software such as Win-Non-Lin (available from Certara inc.) SCO-101 and Irinotecan was administered as described in the materials and methods section. Blood samples were withdrawn and analysed as specified. […] Raw data was then plotted using win-non-lin software to obtain relevant pharmacokinetic parameters, e.g. Cmax and AUC. […]

The test system of series [3] is SN38-resistant human colon cancer cell lines (HT29 and LoVo). Description: Cell viability (MTT/PrestoBlue) and clonogenic assays (Example 4). Particulars: SN-38-resistant cells exposed to SCO-101 and SN-38. The series is classed as cell-based. From the text: Pairs of parental (sensitive) and SN38-resistant human colon cancer cell lines (HT29 and LoVo) were used. ABCG2 overexpression and effects of SCO-101 on ABCG2 was investigated by western blot, qPCR, dye-flux assays, bi-directional flux assays, 3H-SN38 accumulation assays and vesicular uptake assays. The effect of SCO-101 on SN38 re-sensitization was investigated by cell viability assays (MTT/PrestoBlue) and clonogenic assays.

Broadly, the EC50 is the concentration that produces a half-maximal response. On to `O=C(Nc1cc(C(F)(F)F)cc(C(F)(F)F)c1)Nc1ccc(Br)cc1-c1nnn[nH]1` [SCO-101], for which the “Uptake of SN-38 in the presence vs absence of SCO-101, all seeded cell densities” value in series [1] (25 μM SCO-101, HT29 SN-38 resistant) is given as “increased uptake”. In series [1] (25 μM test compound, HT29 SN-38 resistant, ANOVA α=0.05), the “Uptake of SN-38 relative to blank HBSS transport buffer control” value is “significantly increased”. The 50% effective concentration (EC50) in series [1] (HT29 SN-38 res cell monolayers, read-out: Estimated EC50-value for increase in uptake of SN-38) is 9.8 µM. For the same molecule, in series [1] (SCO-101 100 to 0.5 μM, HT29 SN-38 resistant), the “Uptake of SN-38 with increasing concentrations of SCO-101” value is “concentration-dependent increase”. The “SCO-101 plasma level at which levels stabilize over time” value in series [2] (modelled from patient data) is “around 55 μg/mL”. Besides, the half-life in series [2] (human, plasma, oral, read-out: SCO-101 half-life after stopping the administration (converted)) is roughly 24 h. Also, the “Effect on cell viability and colony formation of the combination with SN-38 compared to either drug alone” value in series [3] is reported as “synergistic inhibitory effect”.

The values above are taken from patent publication US20250262188A1, “Methods of Increasing the Plasma Drug Exposure of Anticancer Agents” (Scandion Oncology A/S, priority 2021, published 2025).
